Data from patent US20210128645A1, “INTESTINAL MICROBE HAVING D-PSICOSE-RESPONSIVE PROLIFERATION” (priority 2018, published 2021).

How the values were obtained:
[1] = test system: genus Atopobium (intestinal microbe, SEQ ID NO:1 OTU); experiment: 16S rRNA gene analysis of intestinal microbiota in fecal samples of D-psicose-administered mice; format: in vivo, mouse; conditions: 5.0% D-psicose water, high-fat diet, fecal samples at week 5, vs tap water control (FIG. 4)
Description: The relative abundance of the genus Atopobium in the fecal samples at week 5 from start of rearing is shown. The relative abundance is calculated as the percentage of the genus Atopobium in the total reads. Control (white): high-fat diet+tap water, D-psicose (black): high-fat diet +5.0% D-psicose. The Mann-Whitney U test was used in significance testing. A p-value of 0.001 or less is considered significant and indicated by P<0.001: in the figure.
(§1) Twenty eight 6-week-old male C57BL/6J mice (CLEA Japan, Inc.) were provided and fed a normal diet CE-2 (CLEA Japan, Inc.) and tap water for 2 weeks, followed by acclimation. The mice were divided into 4 groups (7 mice per group): (i) tap water-administered group, (ii) D-psicose water-administered group, (iii) tap water and antibiotic-administered group, and (iv) D-psicose water and antibiotic-administered group. The experiment was started at 8 weeks old. […] During the experimental period, the body weight of the mice, the water intake, and the food intake were measured weekly, and the feces were collected. […] At week 9 (17 weeks old) from the start of the experiment, the fasting blood glucose level, an indicator of diabetes, was measured. After 15-hour fasting, the side of the tail was pricked with a syringe needle (Terumo Corporation), and the blood glucose level was measured by using a glucometer (Nipro StatStrip XP3). […]

[2] = test system: male C57BL/6J mice fed a high-fat diet; experiment: High-fat diet mouse experiment with D-psicose drinking water: body weight gain and fasting blood glucose; format: in vivo
Description: Eight-week-old (week 0) male C57BL/6J mice (total 4 groups, n=7) were fed a high-fat diet and tap water (control) or D-psicose-containing water, or antibiotics in addition to these (Control+Abx, D-psicose+Abx). During the experimental period, the body weight of the mice, the water intake, and the food intake were measured weekly, and the feces were collected. The samples at weeks 0 and 5 were used for analysis. The fasting blood glucose level was measured at week 9. The mice were dissected after 11 weeks.
The average (g) of the body weight gain at week 5 (13 weeks old) from start of rearing (8 weeks old) is shown (n =7). The error bars represent standard deviations (SDs). Control (white): high-fat diet+tap water, D-psicose (black): high-fat diet +5.0% D-psicose, Abx−: without antibiotic treatment, Abx+: with antibiotic treatment. The antibiotics were 0.1% ampicillin sodium, 0.1% neomycin sulfate, and 0.05% vancomycin hydrochloride. The Student's t-test was used in significance testing. A p-value of 0.05 or less is considered significant and indicated by*in the figure.
The 15-hour fasting blood glucose level (mg/dl) at week 9 after start of rearing is shown (n=7). The error bars represent standard deviations (SDs). Control (white): high-fat diet+tap water, D-psicose (black): high-fat diet +5.0% D-psicose, Abx−: without antibiotic treatment, Abx+: with antibiotic treatment. The antibiotics were 0.1% ampicillin sodium, 0.1% neomycin sulfate, and 0.05% vancomycin hydrochloride. The Student's t-test was used in significance testing. A p-value of 0.05 or less is considered significant and indicated by*in the figure.
as §1, with “old. For food, the mice in all groups were freely fed a high-fat diet HFD32 (CLEA Japan, Inc.).” for “old.”

SMILES: O=C(CO)[C@H](O)[C@H](O)[C@H](O)CO [D-psicose]
- growth (relative abundance) of the intestinal microbe, genus Atopobium, in feces [1]: significantly grows
- body weight gain due to the intake of high-fat diet ([2]; 5.0% (w/v) D-psicose in drinking water, without antibiotic treatment, week 5, vs tap water control (FIG. 2)): significantly suppresses the body weight gain
- suppression of body weight gain ([2]; 5.0% D-psicose water plus antibiotics (0.1% ampicillin sodium, 0.1% neomycin sulfate, 0.05% vancomycin hydrochloride), intestinal microbes removed (FIG. 2)): not observed
- fasting blood glucose level, difference between groups ([2]; 5.0% D-psicose water plus antibiotics vs tap water plus antibiotics, 15-hour fasting, week 9 (FIG. 3)): no significant difference
- fasting blood glucose level ([2]; 5.0% D-psicose water, without antibiotics, 15-hour fasting, week 9, vs tap water control (FIG. 3)): significantly reduces the blood glucose level
